Data from patent publication US20260193226A1, “MICROBIOCIDAL TETRAHYDROISOQUINOLINE DERIVATIVES” (SYNGENTA CROP PROTECTION AG, priority 2022, published 2026).

Assays:
[1] = test system: Mycosphaerella graminicola (Septoria tritici); experiment: Mycosphaerella graminicola (Septoria tritici) / liquid culture (Septoria blotch); assay type: cell-based; settings: Zymoseptoria tritici, compared to untreated control
Description: Example B15: Mycosphaerella graminicola (Septoria tritici)/Liquid Culture (Septoria Blotch) Conidia of the fungus from cryogenic storage are directly mixed into nutrient broth (PDB potato dextrose broth). After placing a (DMSO) solution of test compound into a microtiter plate (96-well format), the nutrient broth containing the fungal spores is added. The test plates are incubated at 24° C. and the inhibition of growth is determined photometrically 4 to 5 days after application.

[2] = test system: Mycosphaerella arachidis (Cercospora arachidicola); experiment: Mycosphaerella arachidis (Cercospora arachidicola) / liquid culture (early leaf spot); assay type: cell-based; settings: compared to untreated control
Description: Example B9: Mycosphaerella arachidis (Cercospora arachidicola)/Liquid Culture (Early Leaf Spot) Conidia of the fungus from cryogenic storage are directly mixed into nutrient broth (PDB potato dextrose broth). After placing a (DMSO) solution of test compound into a microtiter plate (96-well format), the nutrient broth containing the fungal spores is added. The test plates are incubated at 24° C. and the inhibition of growth is determined photometrically 4 to 5 days after application.

Pyrenophora teres = Pyrenophora teres / barley / leaf disc preventative (net blotch); assay type: in vivo; settings: foliar, compared to untreated control
Description: Example B12: Pyrenophora teres/Barley/Leaf Disc Preventative (Net Blotch) Barley leaf segments cv. Hasso are placed on agar in a multiwell plate (24-well format) and sprayed with the formulated test compound diluted in water. The leaf segments are inoculated with a spore suspension of the fungus 2 days after application. The inoculated leaf segments are incubated at 20° C. and 65% rh under a light regime of 12 h light/12 h darkness in a climate cabinet and the activity of a compound is assessed as disease control compared to untreated when an appropriate level of disease damage appears in untreated check leaf segments (5 to 7 days after application).

[3] = test system: Monographella nivalis (Microdochium nivale); experiment: Monographella nivalis (Microdochium nivale) / liquid culture (foot rot cereals); assay type: cell-based; settings: compared to untreated control
Description: Example B8: Monographella nivalis (Microdochium nivale)/Liquid Culture (Foot Rot Cereals) Conidia of the fungus from cryogenic storage are directly mixed into nutrient broth (PDB potato dextrose broth). After placing a (DMSO) solution of test compound into a microtiter plate (96-well format), the nutrient broth containing the fungal spores is added. The test plates are incubated at 24° C. and the inhibition of growth is determined photometrically 4 to 5 days after application.

[4] = test system: Glomerella lagenarium (Colletotrichum lagenarium); experiment: Glomerella lagenarium (Colletotrichum lagenarium) / liquid culture (anthracnose); assay type: cell-based; settings: Colletotrichum orbiculare, compared to untreated control
Description: Example B3: Glomerella lagenarium (Colletotrichum lagenarium)/Liquid Culture (Anthracnose) Conidia of the fungus from cryogenic storage are directly mixed into nutrient broth (PDB potato dextrose broth). After placing a (DMSO) solution of test compound into a microtiter plate (96-well format), the nutrient broth containing the fungal spores is added. The test plates are incubated at 24° C. and the inhibition of growth is measured photometrically 3 to 4 days after application.

Alternaria solani = Alternaria solani / tomato / leaf disc (early blight); assay type: in vivo; settings: foliar, compared to untreated control
Description: Example B1: Alternaria solani/Tomato/Leaf Disc (Early Blight) Tomato leaf disks cv. Baby are placed on agar in multiwell plates (24-well format) and sprayed with the formulated test compound diluted in water. The leaf disks are inoculated with a spore suspension of the fungus 2 days after application. The inoculated leaf disks are incubated at 23° C./21° C.

CCCCCNC(=O)N1C[C@H](c2cnn(C)c2C)c2ccccc2[C@@H]1C (racemic) [Compound P-43, rac-(1S,4S)-4-(1,5-dimethylpyrazol-4-yl)-1-methyl-N-pentyl-3,4-dihydro-1H-isoquinoline-2-carboxamide]
≥ 80%: inhibition of growth at 20 ppm [1] | inhibition of growth at 20 ppm [2] | pest or weed control at 200 ppm (Pyrenophora teres) | inhibition of growth at 20 ppm [3]

Cc1c(C2CN(C(=O)CCCCCC(F)(F)F)Cc3ccccc32)cnn1C (stereo not drawn) [Compound P-30, 1-[4-(1,5-dimethylpyrazol-4-yl)-3,4-dihydro-1H-isoquinolin-2-yl]-7,7,7-trifluoro-heptan-1-one]
≥ 80%: inhibition of growth at 20 ppm [1] | inhibition of growth at 20 ppm [2] | inhibition of growth at 20 ppm [3]

Cc1c(C2CN(C(=O)NCCCCC(F)F)Cc3ccccc32)cnn1C (stereo not drawn) [Compound P-50, N-(5,5-difluoropentyl)-4-(1,5-dimethylpyrazol-4-yl)-3,4-dihydro-1H-isoquinoline-2-carboxamide]
≥ 80%: inhibition of growth at 20 ppm [1] | pest or weed control at 200 ppm (Pyrenophora teres)

Cc1c([C@H]2CN(C(=O)CCc3ccc(F)cc3F)[C@@H](C)c3ccccc32)cnn1C (racemic) [Compound P-45, 3-(2,4-difluorophenyl)-1-[rac-(1S,4S)-4-(1,5-dimethylpyrazol-4-yl)-1-methyl-3,4-dihydro-1H-isoquinolin-2-yl]propan-1-one]
≥ 80%: inhibition of growth at 20 ppm [1] | inhibition of growth at 20 ppm [2] | pest or weed control at 200 ppm (Pyrenophora teres) | inhibition of growth at 20 ppm [3] | inhibition of growth at 20 ppm [4] | pest or weed control at 200 ppm (Alternaria solani)

Cc1c(C2CN(C(=O)CCc3ccc(F)cc3)Cc3ccccc32)cnn1C (stereo not drawn) [Compound P-7, 1-[4-(1,5-dimethylpyrazol-4-yl)-3,4-dihydro-1H-isoquinolin-2-yl]-3-(4-fluorophenyl)propan-1-one]
≥ 80%: inhibition of growth at 20 ppm [1] | pest or weed control at 200 ppm (Alternaria solani)

Cc1c(C2CN(C(=O)NCC3CCCCC3)Cc3ccccc32)cnn1C (stereo not drawn) [Compound P-36, N-(cyclohexylmethyl)-4-(1,5-dimethylpyrazol-4-yl)-3,4-dihydro-1H-isoquinoline-2-carboxamide]
≥ 80%: inhibition of growth at 20 ppm [1] | pest or weed control at 200 ppm (Pyrenophora teres)

CCCCCCC(=O)N1Cc2ccccc2C(c2cnn(C)c2C)C1 (stereo not drawn) [Compound P-4, 1-[4-(1,5-dimethylpyrazol-4-yl)-3,4-dihydro-1H-isoquinolin-2-yl]heptan-1-one]
≥ 80%: inhibition of growth at 20 ppm [1] | inhibition of growth at 20 ppm [2] | inhibition of growth at 20 ppm [3] | inhibition of growth at 20 ppm [4] | pest or weed control at 200 ppm (Alternaria solani)

Cc1c(C2CN(C(=O)OCCC3CCCCC3)Cc3ccccc32)cnn1C (stereo not drawn) [Compound P-2, 2-cyclohexylethyl 4-(1,5-dimethylpyrazol-4-yl)-3,4-dihydro-1H-isoquinoline-2-carboxylate]
≥ 80%: inhibition of growth at 20 ppm [1] | inhibition of growth at 20 ppm [2] | inhibition of growth at 20 ppm [3] | inhibition of growth at 20 ppm [4]

Cc1c([C@H]2CN(C(=O)CCCCCC(F)(F)F)[C@@H](C)c3ccccc32)cnn1C (racemic) [Compound P-29, 7,7,7-trifluoro-1-[rac-(1S,4S)-4-(1,5-dimethylpyrazol-4-yl)-1-methyl-3,4-dihydro-1H-isoquinolin-2-yl]heptan-1-one]
≥ 80%: inhibition of growth at 20 ppm [1] | inhibition of growth at 20 ppm [2] | pest or weed control at 200 ppm (Pyrenophora teres) | inhibition of growth at 20 ppm [3] | pest or weed control at 200 ppm (Alternaria solani)

Cc1c(C2CN(C(=O)CCc3ccc(Cl)cc3)Cc3ccccc32)cnn1C (stereo not drawn) [Compound P-22, 3-(4-chlorophenyl)-1-[4-(1,5-dimethylpyrazol-4-yl)-3,4-dihydro-1H-isoquinolin-2-yl]propan-1-one]
≥ 80%: inhibition of growth at 20 ppm [1] | inhibition of growth at 20 ppm [2] | pest or weed control at 200 ppm (Pyrenophora teres) | pest or weed control at 200 ppm (Alternaria solani)

CCCCCCCC(=O)N1Cc2ccccc2C(c2cnn(C)c2C)C1 (stereo not drawn) [Compound P-10, 1-[4-(1,5-dimethylpyrazol-4-yl)-3,4-dihydro-1H-isoquinolin-2-yl]octan-1-one]
≥ 80%: inhibition of growth at 20 ppm [1] | inhibition of growth at 20 ppm [2] | inhibition of growth at 20 ppm [3] | inhibition of growth at 20 ppm [4]

CCCCCCC(=O)N1C[C@H](c2cnn(C)c2C)c2ccccc2[C@@H]1C (racemic) [Compound P-11, 1-[rac-(1S,4S)-4-(1,5-dimethylpyrazol-4-yl)-1-methyl-3,4-dihydro-1H-isoquinolin-2-yl]heptan-1-one]
≥ 80%: inhibition of growth at 20 ppm [1] | inhibition of growth at 20 ppm [2] | pest or weed control at 200 ppm (Pyrenophora teres) | inhibition of growth at 20 ppm [3] | inhibition of growth at 20 ppm [4] | pest or weed control at 200 ppm (Alternaria solani)

Cc1c([C@H]2CN(C(=O)OCCC3CCCCC3)[C@@H](C)c3ccccc32)cnn1C (racemic) [Compound P-16, 2-cyclohexylethyl rac-(1S,4S)-4-(1,5-dimethylpyrazol-4-yl)-1-methyl-3,4-dihydro-1H-isoquinoline-2-carboxylate]
≥ 80%: inhibition of growth at 20 ppm [1] | inhibition of growth at 20 ppm [2] | inhibition of growth at 20 ppm [3] | inhibition of growth at 20 ppm [4]

Cc1c(C2CN(C(=O)NCCCCCF)Cc3ccccc32)cnn1C (stereo not drawn) [Compound P-49, 4-(1,5-dimethylpyrazol-4-yl)-N-(5-fluoropentyl)-3,4-dihydro-1H-isoquinoline-2-carboxamide]
≥ 80%: inhibition of growth at 20 ppm [1] | pest or weed control at 200 ppm (Pyrenophora teres)

Cc1c([C@H]2CN(C(=O)CCCCC(F)F)[C@@H](C)c3ccccc32)cnn1C (racemic) [Compound P-27, 6,6-difluoro-1-[rac-(1S,4S)-4-(1,5-dimethylpyrazol-4-yl)-1-methyl-3,4-dihydro-1H-isoquinolin-2-yl]hexan-1-one]
≥ 80%: inhibition of growth at 20 ppm [1] | inhibition of growth at 20 ppm [2] | pest or weed control at 200 ppm (Pyrenophora teres) | inhibition of growth at 20 ppm [3]

Cc1c(C2CN(C(=O)NCCC3CCCCC3)Cc3ccccc32)cnn1C (stereo not drawn) [Compound P-42, N-(2-cyclohexylethyl)-4-(1,5-dimethylpyrazol-4-yl)-3,4-dihydro-1H-isoquinoline-2-carboxamide]
≥ 80%: inhibition of growth at 20 ppm [1] | inhibition of growth at 20 ppm [2] | inhibition of growth at 20 ppm [3]

CCCCCNC(=O)N1Cc2ccccc2C(c2cnn(C)c2C)C1 (stereo not drawn) [Compound P-31, 4-(1,5-dimethylpyrazol-4-yl)-N-pentyl-3,4-dihydro-1H-isoquinoline-2-carboxamide]
≥ 80%: inhibition of growth at 20 ppm [1] | inhibition of growth at 20 ppm [2] | pest or weed control at 200 ppm (Pyrenophora teres) | pest or weed control at 200 ppm (Alternaria solani)

CCCCCOC(=O)N1C[C@H](c2cnn(C)c2C)c2ccccc2[C@@H]1C (racemic) [Compound P-28, pentyl rac-(1S,4S)-4-(1,5-dimethylpyrazol-4-yl)-1-methyl-3,4-dihydro-1H-isoquinoline-2-carboxylate]
≥ 80%: inhibition of growth at 20 ppm [1] | inhibition of growth at 20 ppm [2] | inhibition of growth at 20 ppm [3] | inhibition of growth at 20 ppm [4] | pest or weed control at 200 ppm (Alternaria solani)
